A short description of this data set: Example 1: stability of bilberry extract anthocyanosides, 4 hours at 37° C., pH 7.0, with/without DHLA or GSH (HPLC). Format: physicochemical. The following applies: for % left, GSH (4 hours) / Peak Area, GSH (4 hours): 20 mg reduced L-glutathione; for % left, GSH (4 hours) / Peak Area, GSH (4 hours) / % left, DHLA (4 hours) / Peak Area, DHLA (4 hours) / % left, Blank (4 hours) / Peak Area, Blank (4 hours): pH 7.0, 37° C.; for % left, DHLA (4 hours) / Peak Area, DHLA (4 hours): 30 mg dihydrolipoic acid; for Peak Area, Fresh (0 hours): bilberry extract 60 mg/100 ml sodium phosphate buffer pH 7.0, fresh sample; for % left, Blank (4 hours) / Peak Area, Blank (4 hours): unprotected.

Here are results for 8 molecules from patent US8623429B2, “Stabilized anthocyanin compositions” (Omnica GmbH, priority 2007, dated 2014).

Description: (0.048 mmol anthocyanosides expressed as cyanidin-3-O-glucoside) were added to a 100 ml flask and filled to volume with sodium phosphate buffer (5% [w/w], pH=7.0), and stirred until dissolution was complete. A 1 ml sample was taken immediately and acidified with formic acid to pH=1.0 and analyzed by HPLC for the content of anthocyanosides (Fresh Sample). The remaining solution was kept for 4 hours at 37° C. (water bath) with stirring. Thereafter another sample (Blank sample), representing unprotected degradation, was taken and acidified.
(0.048 mmol expressed as cyanidin-3-O-glucoside) were then added and the flask was filled to volume with sodium phosphate buffer (5% [w/w], pH=7.0) and kept for 4 hours at 37° C. (water bath) with stirring.
After 4 hours, samples were taken and acidified immediately with formic acid to pH=1.0 and analyzed by HPLC for the content of anthocyanosides. Degradation is expressed as decrease in peak area of individual peaks (calculated as % left after 4 hours).
Samples were prepared as outlined below in HPLC Analytical Method. Test stability samples were immediately acidified (to block degradation) and injected undiluted following the detailed description provided below.
Quantitation: External standardization based on linear regression analysis. The response factors of all anthocyanosides separated is quantitified against cyanidin-3-O-glucoside.
Test solutions from incubation experiments (with/without cells and with/without stabilizing agents) were used for analysis after stabilization of anthocyanosides with formic acid. Samples were cleared by filtration prior to injection on to HPLC-system.

As for `Oc1cc(O)c2cc(O[C@@H]3OC[C@H](O)[C@H](O)[C@H]3O)c(-c3ccc(O)c(O)c3)[o+]c2c1` [Cn-3O-Ara, Cyanidin 3-o-arabinoside], the “% left, GSH (4 hours)” value turned out to be 79.5%; the “Peak Area, GSH (4 hours)” value amounted to 293.7; the “% left, DHLA (4 hours)” value turned out to be 70.2%; the “Peak Area, DHLA (4 hours)” value was determined as 258.4. Further, the “Peak Area, Fresh (0 hours)” value was 369.6; the “% left, Blank (4 hours)” value is 38.5%; the “Peak Area, Blank (4 hours)” value was 142.3.

For the molecule `Oc1cc(O)c2cc(O[C@H]3OC[C@H](O)[C@H](O)[C@H]3O)c(-c3cc(O)c(O)c(O)c3)[o+]c2c1` [Dp-3O-Ara, Delphinidin 3-o-arabinoside], the “% left, GSH (4 hours)” value was 50.2%; the “Peak Area, GSH (4 hours)” value was found to be 283.6; the “% left, DHLA (4 hours)” value is recorded as 64.5%; the “Peak Area, DHLA (4 hours)” value worked out at 364.4. Moreover, the “Peak Area, Fresh (0 hours)” value is reported as 564.9; the “% left, Blank (4 hours)” value is reported as 6.9%; the “Peak Area, Blank (4 hours)” value was determined as 39.1.

As to `COc1cc(-c2[o+]c3cc(O)cc(O)c3cc2O[C@@H]2O[C@H](CO)[C@H](O)[C@H](O)[C@H]2O)cc(OC)c1O` [Mv-3O-Gal, Malvidin 3-o-galactoside], the “% left, GSH (4 hours)” value was found to be 74.4%; the “Peak Area, GSH (4 hours)” value is recorded as 133.2; the “% left, DHLA (4 hours)” value amounted to 62.8%; the “Peak Area, DHLA (4 hours)” value worked out at 112.5. Also, the “Peak Area, Fresh (0 hours)” value is 179.1; the “% left, Blank (4 hours)” value came to 37.6%; the “Peak Area, Blank (4 hours)” value was 67.3.

Regarding `COc1cc(-c2[o+]c3cc(O)cc(O)c3cc2O[C@@H]2O[C@H](CO)[C@@H](O)[C@H](O)[C@H]2O)cc(OC)c1O` [Mv-3O-Glc, Malvidin 3-o-glucoside], the “% left, GSH (4 hours)” value is reported as 73.7%; the “Peak Area, GSH (4 hours)” value is reported as 336.2; the “% left, DHLA (4 hours)” value is 63.0%; the “Peak Area, DHLA (4 hours)” value is 287.4. In addition, the “Peak Area, Fresh (0 hours)” value was 455.9; the “% left, Blank (4 hours)” value is 36.1%; the “Peak Area, Blank (4 hours)” value is reported as 164.7.

Take `COc1cc(-c2[o+]c3cc(O)cc(O)c3cc2O[C@@H]2OC[C@H](O)[C@H](O)[C@H]2O)cc(OC)c1O` [Mv-3O-Ara, Malvidin 3-o-arabinoside]: the “% left, GSH (4 hours)” value was 75.0%; the “Peak Area, GSH (4 hours)” value is recorded as 81.2; the “% left, DHLA (4 hours)” value is 69.4%; the “Peak Area, DHLA (4 hours)” value came out at 75.2. The “Peak Area, Fresh (0 hours)” value is 108.3; the “% left, Blank (4 hours)” value was 34.0%; the “Peak Area, Blank (4 hours)” value was 36.8.

With `COc1cc(-c2[o+]c3cc(O)cc(O)c3cc2O[C@@H]2OC[C@H](O)[C@H](O)[C@H]2O)cc(O)c1O.[Cl-]` [Pt-3O-Ara, Petunidin 3-o-arabinoside], the “% left, GSH (4 hours)” value is given as 69.4%; the “Peak Area, GSH (4 hours)” value came to 97.6; the “% left, DHLA (4 hours)” value was 66.6%; the “Peak Area, DHLA (4 hours)” value is listed as 93.7. Besides, the “Peak Area, Fresh (0 hours)” value was 140.6; the “% left, Blank (4 hours)” value is on record as 16.2%; the “Peak Area, Blank (4 hours)” value came out at 22.8.

Turning to `COc1cc(-c2[o+]c3cc(O)cc(O)c3cc2O[C@@H]2O[C@H](CO)[C@@H](O)[C@H](O)[C@H]2O)cc(O)c1O` [Pt-3O-Glc, Petunidin 3-o-glucoside], the “% left, GSH (4 hours)” value is reported as 66.7%; the “Peak Area, GSH (4 hours)” value amounted to 315.6; the “% left, DHLA (4 hours)” value is reported as 57.4%; the “Peak Area, DHLA (4 hours)” value was 271.9. Further, the “Peak Area, Fresh (0 hours)” value is on record as 473.4; the “% left, Blank (4 hours)” value is listed as 16.6%; the “Peak Area, Blank (4 hours)” value is reported as 78.8.

As for `COc1cc(-c2[o+]c3cc(O)cc(O)c3cc2O[C@@H]2O[C@H](CO)[C@@H](O)[C@H](O)[C@H]2O)ccc1O` [Pe-3O-Glc, Peonidin 3-o-glucoside], the “% left, GSH (4 hours)” value was 76.9%; the “Peak Area, GSH (4 hours)” value is 172.0; the “% left, DHLA (4 hours)” value stood at 62.3%; the “Peak Area, DHLA (4 hours)” value is 139.2. Also, the “Peak Area, Fresh (0 hours)” value is 223.6; the “% left, Blank (4 hours)” value is 42.4%; the “Peak Area, Blank (4 hours)” value is on record as 94.8.
